Patent US20240336654A1, “ANTIMICROBIAL PEPTIDOMIMETICS” (SPEXIS AG, priority 2021, published 2024)
Where a SMILES comes first, the peptide text is derived from it. Bridges are numbered along the chain shown (N, C = ends). [ ]: non-standard residue; d: D form. The star is where a group is joined. Val(Nα-amidino) = CC(C)[C@H](NC(=N)N)C(=O)*; Hyp = O=C(O)[C@@H]1C[C@@H](O)CN1; Cit = NC(=O)NCCC[C@H](N)C(=O)O; Pen = CC(C)(S)[C@H](N)C(=O)O; dDab = NCC[C@@H](N)C(=O)O; hSer = N[C@@H](CCO)C(=O)O; Orn = NCCC[C@H](N)C(=O)O; Dab = NCC[C@H](N)C(=O)O

What was measured:
Format in all cases: cell-based
[1] = system: human red blood cells (hRBC); settings: red cells of human, 1 h, 200 μg/mL
Outline: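 Percent hemolysis derived from OD540 of supernatants relative to full lysis by 2.5% Triton X-100 (PBS baseline). Washed fresh human erythrocytes (20% v/v) were exposed to 200 μg/mL peptide for 1 h at 37 °C with shaking.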

[2] = system: Escherichia coli ATCC 25922; settings: ATCC 25922
Outline: (§1)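 The MIC is the lowest peptide concentration, in μg/mL, with no visible growth after 18-20 h incubation at 35 °C. Serial two-fold peptide dilutions in water with 0.002% P-80 final were added to bacteria in cation-adjusted MHII broth, about 5×10^5 CFU/mL, following modified CLSI microdilution.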

[3] = system: Klebsiella pneumoniae SSI3010; settings: SSI3010
Outline: as §1

[4] = system: Escherichia coli MCR-1 Af 45; settings: MCR-1 Af 45
Outline: as §1

Row | Compound | Escherichia coli ATCC 25922 MIC [2] | Klebsiella pneumoniae SSI3010 MIC [3] | Escherichia coli MCR-1 Af45 MIC [4] | Hemolysis at 0.2 g/L [1]
1 | CC[C@H](C)[C@H](NC(=O)[C@@H]1C[C@@H](O)CN1C(=O)[C@@H](NC(=N)N)C(C)C)C(=O)N[C@H]1CCNC(=O)CC[C@@H](C(=O)N[C@@H](Cc2ccc(O)cc2)C(=O)O)NC(=O)[C@H](CCN)NC(=O)[C@H](CCN)NC(=O)[C@H](CO)NC(=O)[C@@H](CCN)NC(=O)[C@H]([C@@H](C)O)NC(=O)[C@H](CCN)NC(=O)[C@H](CCCNC(=N)N)NC(=O)[C@H](CC(N)=O)NC(=O)[C@H]([C@@H](C)O)NC(=O)[C@H](Cc2ccc(O)cc2)NC1=O [Example 112, Gua-Val-Hyp-Ile-Dab-Tyr-Thr-Asn-Arg-Dab-Thr-^DDab-Ser-Dab-Dab-Glu-Tyr] ({Val(Nα-amidino)}-[Hyp]I[Dab]YTNR[Dab]T[dDab]S[Dab][Dab]EY-OH; lactam 3-14) | 0.125 µg/mL | 0.25 µg/mL | 0.125 µg/mL | <1%
2 | CC[C@H](C)[C@H](NC(=O)[C@@H]1C[C@@H](O)CN1C(=O)[C@@H](NC(=N)N)C(C)C)C(=O)N[C@H]1CCNC(=O)CC[C@@H](C(=O)N[C@@H](Cc2ccc(O)cc2)C(=O)O)NC(=O)[C@H](CCN)NC(=O)[C@H](CCN)NC(=O)[C@H]([C@@H](C)O)NC(=O)[C@@H](CCN)NC(=O)[C@H]([C@@H](C)O)NC(=O)[C@H](CCN)NC(=O)[C@H](CCCNC(=N)N)NC(=O)[C@H](CC(N)=O)NC(=O)[C@H]([C@@H](C)O)NC(=O)[C@H](Cc2ccc(O)cc2)NC1=O [Example 113, Gua-Val-Hyp-Ile-Dab-Tyr-Thr-Asn-Arg-Dab-Thr-^DDab-Thr-Dab-Dab-Glu-Tyr] ({Val(Nα-amidino)}-[Hyp]I[Dab]YTNR[Dab]T[dDab]T[Dab][Dab]EY-OH; lactam 3-14) | 0.125 µg/mL | 0.25 µg/mL | 0.125 µg/mL | <1%
3 | CC[C@H](C)[C@H](NC(=O)[C@@H]1C[C@@H](O)CN1C(=O)[C@@H](NC(=N)N)C(C)C)C(=O)N[C@H]1CCNC(=O)CC[C@@H](C(=O)N[C@@H](Cc2ccc(O)cc2)C(=O)O)NC(=O)[C@H](CCN)NC(=O)[C@H](CCN)NC(=O)[C@H](CCCNC(N)=O)NC(=O)[C@@H](CCN)NC(=O)[C@H]([C@@H](C)O)NC(=O)[C@H](CCN)NC(=O)[C@H](CCCNC(=N)N)NC(=O)[C@H](CC(N)=O)NC(=O)[C@H]([C@@H](C)O)NC(=O)[C@H](Cc2ccc(O)cc2)NC1=O [Example 114, Gua-Val-Hyp-Ile-Dab-Tyr-Thr-Asn-Arg-Dab-Thr-^DDab-Cit-Dab-Dab-Glu-Tyr] ({Val(Nα-amidino)}-[Hyp]I[Dab]YTNR[Dab]T[dDab][Cit][Dab][Dab]EY-OH; lactam 3-14) | 0.125 µg/mL | 0.5 µg/mL | 0.125 µg/mL | <1%
4 | CC[C@H](C)[C@H](NC(=O)[C@@H]1C[C@@H](O)CN1C(=O)[C@@H](NC(=N)N)C(C)C)C(=O)N[C@H]1CCNC(=O)CC[C@@H](C(=O)N[C@@H](Cc2ccc(O)cc2)C(=O)O)NC(=O)[C@H](CCN)NC(=O)[C@H](CCN)NC(=O)[C@H](CCCCN)NC(=O)[C@@H](CCN)NC(=O)[C@H]([C@@H](C)O)NC(=O)[C@H](CCN)NC(=O)[C@H](CCCNC(=N)N)NC(=O)[C@H](CC(N)=O)NC(=O)[C@H](CCCNC(N)=O)NC(=O)[C@H](Cc2ccc(O)cc2)NC1=O [Example 116, Gua-Val-Hyp-Ile-Dab-Tyr-Cit-Asn-Arg-Dab-Thr-^DDab-Lys-Dab-Dab-Glu-Tyr] ({Val(Nα-amidino)}-[Hyp]I[Dab]Y[Cit]NR[Dab]T[dDab]K[Dab][Dab]EY-OH; lactam 3-14) | 0.0625 µg/mL | 0.125 µg/mL | 0.0625 µg/mL | <1%
5 | CC[C@H](C)[C@H](NC(=O)[C@@H]1C[C@@H](O)CN1C(=O)[C@@H](NC(=N)N)C(C)C)C(=O)N[C@H]1CCNC(=O)CC[C@@H](C(=O)N[C@@H](Cc2ccc(O)cc2)C(=O)O)NC(=O)[C@H](CCN)NC(=O)[C@H](CCN)NC(=O)[C@H](CCCCN)NC(=O)[C@@H](CCN)NC(=O)[C@H]([C@@H](C)O)NC(=O)[C@H](CCN)NC(=O)[C@H](CCCNC(=N)N)NC(=O)[C@H](CC(N)=O)NC(=O)[C@H](CCO)NC(=O)[C@H](Cc2ccc(O)cc2)NC1=O [Example 118, Gua-Val-Hyp-Ile-Dab-Tyr-Hse-Asn-Arg-Dab-Thr-^DDab-Lys-Dab-Dab-Glu-Tyr] ({Val(Nα-amidino)}-[Hyp]I[Dab]Y[hSer]NR[Dab]T[dDab]K[Dab][Dab]EY-OH; lactam 3-14) | 0.0625 µg/mL | 0.125 µg/mL | 0.0625 µg/mL | <1%
6 | CC[C@H](C)[C@H](NC(=O)[C@@H]1C[C@@H](O)CN1C(=O)[C@@H](NC(=N)N)C(C)C)C(=O)N[C@H]1CCNC(=O)CC[C@@H](C(=O)N[C@@H](Cc2ccc(O)cc2)C(=O)O)NC(=O)[C@H](CCN)NC(=O)[C@H](CCN)NC(=O)[C@H](CCCN)NC(=O)[C@@H](CCN)NC(=O)[C@H]([C@@H](C)O)NC(=O)[C@H](CCN)NC(=O)[C@H](CCCNC(=N)N)NC(=O)[C@H](CC(N)=O)NC(=O)[C@H]([C@@H](C)O)NC(=O)[C@H](Cc2ccc(O)cc2)NC1=O [Example 119, Gua-Val-Hyp-Ile-Dab-Tyr-Thr-Asn-Arg-Dab-Thr-^DDab-Orn-Dab-Dab-Glu-Tyr] ({Val(Nα-amidino)}-[Hyp]I[Dab]YTNR[Dab]T[dDab][Orn][Dab][Dab]EY-OH; lactam 3-14) | 0.0625 µg/mL | 0.125 µg/mL | 0.0625 µg/mL | <1%

Second part, led by results:

Row | Escherichia coli ATCC 25922 MIC [2] | Klebsiella pneumoniae SSI3010 MIC [3] | Escherichia coli MCR-1 Af45 MIC [4] | Compound | Hemolysis at 0.2 g/L [1]
7 | 0.125 µg/mL | 0.125 µg/mL | 0.0625 µg/mL | CC[C@H](C)[C@H](NC(=O)[C@@H]1C[C@@H](O)CN1C(=O)[C@@H](NC(=N)N)C(C)C)C(=O)N[C@@H]1C(=O)N[C@@H](Cc2ccc(O)cc2)C(=O)N[C@@H](CCCNC(N)=O)C(=O)N[C@@H](CC(N)=O)C(=O)N[C@@H](CCCNC(=N)N)C(=O)N[C@@H](CCN)C(=O)N[C@@H]([C@@H](C)O)C(=O)N[C@H](CCN)C(=O)N[C@@H](CCCCN)C(=O)N[C@@H](CCN)C(=O)N[C@@H](CCN)C(=O)N[C@H](C(=O)N[C@@H](Cc2ccc(O)cc2)C(=O)O)CSSC1(C)C [Example 115, Gua-Val-Hyp-Ile-Pen-Tyr-Cit-Asn-Arg-Dab-Thr-^DDab-Lys-Dab-Dab-Cys-Tyr] ({Val(Nα-amidino)}-[Hyp]I[Pen]Y[Cit]NR[Dab]T[dDab]K[Dab][Dab]CY-OH; disulfide 3-14) | <1%
8 | 0.125 µg/mL | 0.125 µg/mL | 0.0625 µg/mL | CC[C@H](C)[C@H](NC(=O)[C@@H]1C[C@@H](O)CN1C(=O)[C@@H](NC(=N)N)C(C)C)C(=O)N[C@@H]1C(=O)N[C@@H](Cc2ccc(O)cc2)C(=O)N[C@@H](CCO)C(=O)N[C@@H](CC(N)=O)C(=O)N[C@@H](CCCNC(=N)N)C(=O)N[C@@H](CCN)C(=O)N[C@@H]([C@@H](C)O)C(=O)N[C@H](CCN)C(=O)N[C@@H](CCCCN)C(=O)N[C@@H](CCN)C(=O)N[C@@H](CCN)C(=O)N[C@H](C(=O)N[C@@H](Cc2ccc(O)cc2)C(=O)O)CSSC1(C)C [Example 117, Gua-Val-Hyp-Ile-Pen-Tyr-Hse-Asn-Arg-Dab-Thr-^DDab-Lys-Dab-Dab-Cys-Tyr] ({Val(Nα-amidino)}-[Hyp]I[Pen]Y[hSer]NR[Dab]T[dDab]K[Dab][Dab]CY-OH; disulfide 3-14) | <1%
9 | 0.125 µg/mL | 0.125 µg/mL | 0.0625 µg/mL | CC[C@H](C)[C@H](NC(=O)[C@@H]1C[C@@H](O)CN1C(=O)[C@@H](NC(=N)N)C(C)C)C(=O)N[C@@H]1C(=O)N[C@@H](Cc2ccc(O)cc2)C(=O)N[C@@H](CCN)C(=O)N[C@@H](CC(N)=O)C(=O)N[C@@H](CCCNC(=N)N)C(=O)N[C@@H](CCN)C(=O)N[C@@H]([C@@H](C)O)C(=O)N[C@H](CCN)C(=O)N[C@@H](CCN)C(=O)N[C@@H]([C@@H](C)O)C(=O)N[C@@H](CCN)C(=O)N[C@H](C(=O)N[C@@H](Cc2ccc(O)cc2)C(=O)O)CSSC1(C)C [Example 120, Gua-Val-Hyp-Ile-Pen-Tyr-Dab-Asn-Arg-Dab-Thr-^DDab-Dab-Thr-Dab-Cys-Tyr] ({Val(Nα-amidino)}-[Hyp]I[Pen]Y[Dab]NR[Dab]T[dDab][Dab]T[Dab]CY-OH; disulfide 3-14) | <1%
10 | 0.0625 µg/mL | 0.125 µg/mL | 0.0625 µg/mL | CC[C@H](C)[C@H](NC(=O)[C@@H]1C[C@@H](O)CN1C(=O)[C@@H](NC(=N)N)C(C)C)C(=O)N[C@@H]1C(=O)N[C@@H](Cc2ccc(O)cc2)C(=O)N[C@@H](CCN)C(=O)N[C@@H](CC(N)=O)C(=O)N[C@@H](CCCNC(=N)N)C(=O)N[C@@H](CCN)C(=O)N[C@@H]([C@@H](C)O)C(=O)N[C@H](CCN)C(=O)N[C@@H](CCCN)C(=O)N[C@@H]([C@@H](C)O)C(=O)N[C@@H](CCN)C(=O)N[C@H](C(=O)N[C@@H](Cc2ccc(O)cc2)C(=O)O)CSSC1(C)C [Example 121, Gua-Val-Hyp-Ile-Pen-Tyr-Dab-Asn-Arg-Dab-Thr-^DDab-Orn-Thr-Dab-Cys-Tyr] ({Val(Nα-amidino)}-[Hyp]I[Pen]Y[Dab]NR[Dab]T[dDab][Orn]T[Dab]CY-OH; disulfide 3-14) | <1%
